pIC50: −log10 of the molar value.
Biological target: T1, full-length human PKCι (Homo sapiens, UniProt P41743)
T1 construct: Recombinant, full-length human PKCι expressed in Sf21 insect cells is also commercially available; purchased EMD Millipore; host or cells: Sf21 insect cells (baculovirus)
T1 sequence (P41743 1-596): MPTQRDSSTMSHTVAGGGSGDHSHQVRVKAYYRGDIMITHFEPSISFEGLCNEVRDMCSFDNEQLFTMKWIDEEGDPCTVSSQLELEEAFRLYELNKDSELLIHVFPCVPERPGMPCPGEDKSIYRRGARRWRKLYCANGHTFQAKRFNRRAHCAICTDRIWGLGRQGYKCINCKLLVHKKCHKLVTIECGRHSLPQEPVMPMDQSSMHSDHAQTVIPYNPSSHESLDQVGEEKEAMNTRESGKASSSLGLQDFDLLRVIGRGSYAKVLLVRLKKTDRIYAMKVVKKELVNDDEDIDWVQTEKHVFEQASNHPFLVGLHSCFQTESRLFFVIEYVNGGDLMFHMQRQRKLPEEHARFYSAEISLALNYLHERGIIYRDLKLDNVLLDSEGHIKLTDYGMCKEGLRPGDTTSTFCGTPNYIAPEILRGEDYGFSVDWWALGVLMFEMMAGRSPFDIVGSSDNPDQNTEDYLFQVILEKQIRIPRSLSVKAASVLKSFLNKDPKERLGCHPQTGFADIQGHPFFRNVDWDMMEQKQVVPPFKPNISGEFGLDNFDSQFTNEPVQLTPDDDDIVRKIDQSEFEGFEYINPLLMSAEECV
Assay: PKCι IC50 IMAP fluorescence polarisation assay, full-length enzyme, 150 μM ATP
Assay type: biochemical
Conditions: read-out: IC50 in IMAP assay against full length PKCi at 150 μM ATP
From the text: Assays are based on the ability of PKCι to phosphorylate a commercially available peptide substrate in vitro. The peptide substrate is FAM-PKCε pseudopeptide derived peptide, and comprises the amino acid sequence 5FAM-ERMRPRKRQGSVRRRV-NH2. Recombinant, full-length human PKCι expressed in Sf21 insect cells is also commercially available. Recombinant, kinase-domain human PKCι is expressed and purified in-house.
The procedure below explains how dose response curves for inhibitors of PKCι are obtained. The screen described is for a 384 well format but the assay can be adapted to 1536 or other formats as required.
Compounds to be tested are dissolved in 100% DMSO. Compounds are diluted as required to give a final concentration of 4% DMSO (v/v) in the assay. 1 μl is plated into 384 well black low-binding flat bottomed assay plates which are used immediately. Dilutions and additions of compound to assay plates are carried out using Matrix WellMate® and Matrix PlateMate® Plus liquid handling systems.
On the day of the screen PKCι/substrate working solution, and ATP working solution, are prepared in buffer containing 20 mM tris-HCl pH7.5, 10 mM MgCl2, 0.01% Triton X100, 250 μM EGTA and 1 mM DTT. The final concentration of PKCι used varies depending on the batch of protein but is typically 15 pM. The final concentration of peptide substrate in the assay is 100 nM. ATP is used at a final concentration of 150 μM or 25 μM in the assays containing full-length or kinase-domain PKCι respectively, which corresponds to five times or equal to the KM^APP for ATP for each enzyme, respectively. The final buffer concentration in the assay is 18 mM tris-HCl pH7.5, 9 mM MgCl2, 0.009% Triton X100, 225 μM EGTA and 0.9 mM DTT. Relevant controls are included, namely no compound and no enzyme. 5 μl PKCι/substrate working solution at 30 pM and 200 nM, respectively, is added to the wells, followed by 4 μl ATP working solution at 375 μM or 62.5 μM for full-length or kinase-domain PKCι respectively, using a 16 channel Matrix pipette. The reaction is allowed to incubate for 60 minutes at room temperature, before the reaction is stopped and developed by the addition of 20 μl IMAP™ development reagent (Molecular Devices). IMAP development reagent consists of 0.25% (v/v) IMAP progressive binding reagent, 17% (v/v) IMAP progressive binding buffer A and 3% (v/v) IMAP progressive binding buffer B. The plates are then incubated for 2 hours at room temperature before being read using an appropriate plate reader, for example a Molecular Devices HT Analyst or a BMG Pherastar. Plates are read using a fluorescence polarisation protocol with excitation at 485 nm and emission at 530 nm, and dichroic mirror at 505 nm.
Percentage inhibition values are calculated from fluorescence polarisation values, using the no compound and no enzyme control values as 0% and 100% inhibition, respectively. IC50 determination is performed with ExcelFit software (IDBS) using curve fit 205. Z′ factors are determined for each plate tested and are all above 0.5.
Alternatively, compounds were tested for their ability to inhibit the kinase activity of recombinant human baculovirus-expressed PKCiota using the immobilized metal-ion affinity particle (IMAP®) fluorescence polarization detection system (Molecular Devices, Sunnyvale, Calif.). PKCiota/IMAP® substrate mixture (2×) was prepared in 1×IMAP assay buffer (Molecular Devices) containing 1 mM DTT so that the final assay concentrations were 15 pM PKCiota (EMD Millipore, Billerica, Mass.) and 100 nM 5-fluorescein-amidite (FAM)-PKC ? -pseudosubstrate (5-FAM-ERMRPRKRQGSVRRRV-NH2) (Molecular Devices). The 2× working solution was added at 5 μL/well into a 384-well black, non-binding, flat bottom assay plate (Corning, Corning, N.Y.). […]

| SMILES | pIC50 |
| --- | --- |
| FC(F)(F)c1cc2c(-c3nc(N4CCC[C@H]5CNC[C@H]54)c4c(C5CC5)cncc4n3)ccnc2[nH]1 (racemic) [Example 8, (±)-5-Cyclopropyl-4-(4,7-cis)-octahydro-pyrrolo[3,4-b]pvridin-1-yl-2-(2-trifluoromethyl-1H-pyrrolo[2,3-b]pyridin-4-yl)-pyrido[3,4-d]pyrimidine] | > 7.00 |
| FC(F)(F)c1cc2c(-c3nc(N4CC[C@H]5NCC[C@H]54)c4c(C5CC5)cncc4n3)ccnc2[nH]1 (racemic) [Example 19, (±)-5-Cyclopropyl-4-(3,6-cis)-hexahydro-pyrrolo[3,2-b]pyrrol-1-yl-2-(2-trifluoromethyl-1H-pyrrolo[2,3-b]pyridin-4-yl)-pyrido[3,4-d]pyrimidine] | > 7.00 |
| Clc1ccccc1-c1cc2c(-c3nc(N4CC[C@@H]5CNCC[C@@H]54)c4c(C5CC5)cncc4n3)ccnc2[nH]1 (racemic) [Example 27, (±)-2-[2-(2-Chloro-phenyl)-1H-pyrrolo[2,3-b]pyridin-4-yl]-5-cyclopropyl-4-(3aR,7aS)-octahydro-pyrrolo[3,2-c]pyridin-1-yl-pyrido[3,4-d]pyrimidine] | > 7.00 |
| CC(C)(C)c1nc(-c2cc3c(-c4nc(N5CC[C@H]6NCC[C@H]65)c5c(C6CC6)cncc5n4)ccnc3[nH]2)cs1 (racemic) [Example 34, (±)-2-[2-(2-tert-Butyl-thiazol-4-yl)-1H-pyrrolo[2,3-b]pyridin-4-yl]-5-cyclopropyl-4-(3,6-cis)-hexahydro-pyrrolo[3,2-b]pyrrol-1-yl-pyrido[3,4-d]pyrimidine] | > 7.00 |
| FC(F)(F)c1cc2c(-c3nc(N4CC[C@H]5NCC[C@H]54)c4c(C5CCC5)cncc4n3)ccnc2[nH]1 (racemic) [Example 54, (±)-5-Cyclobutyl-4-(3,6-cis)-hexahydro-pyrrolo[3,2-b]pyrrol-1-yl-2-(2-trifluoromethyl-1H-pyrrolo[2,3-b]pyridin-4-yl)-pyrido[3,4-d]pyrimidine] | > 7.00 |
| Fc1cccnc1-c1cc2c(-c3nc(N4CC[C@H]5NCC[C@H]54)c4c(C5CC5)cncc4n3)ccnc2[nH]1 (racemic) [Example 56, (±)-5-Cyclopropyl-2-[2-(3-fluoro-pyridin-2-yl)-1H-pyrrolo[2,3-b]pyridin-4-yl]-4-(3,6- cis)-hexahydro-pyrrolo[3,2-b]pyrrol-1-yl-pyrido[3,4-d]pyrimidine] | > 7.00 |
| Fc1cccnc1-c1cc2c(-c3nc(N4CC[C@H]5NCC[C@H]54)c4c(C5CCC5)cncc4n3)ccnc2[nH]1 (racemic) [Example 57, (±)-5-Cyclobutyl-2-[2-(3-fluoro-pyridin-2-yl)-1H-pyrrolo[2,3-b]pyridin-4-yl]-4-(3,6- cis)-hexahydro-pyrrolo[3,2-b]pyrrol-1-yl-pyrido[3,4-d]pyrimidine] | > 7.00 |
| FC(F)(F)c1cc2c(-c3nc(N4CC[C@H]5NCCC[C@H]54)c4c(C5CC5)cncc4n3)ccnc2[nH]1 (racemic) [Example 63, (±)-5-Cyclopropyl-4-(3,7-cis)-octahydro-pyrrolo[3,2-b]pyridin-1-yl-2-(2-trifluoromethyl-1H-pyrrolo[2,3-b]pyridin-4-yl)-pyrido[3,4-d]pyrimidine] | > 7.00 |
| O[C@]12CCN(c3nc(-c4ccnc5[nH]c6ccccc6c45)nc4cncc(C5CCC5)c34)[C@H]1CCNC2 (racemic) [Example 76, (±)-(3aS,7aS)-1-[5-Cyclobutyl-2-(9H-pyrido[2,3-b]indol-4-yl)-pyrido[3,4-d]pyrimidin-4-yl]-octahydro-pyrrolo[3,2-c]pyridin-3a-ol] | > 7.00 |
| CN(c1nc(-c2ccnc3[nH]c4ccccc4c23)nc2cncc(C3CCC3)c12)[C@@H]1CCNC[C@@]1(C)O (racemic) [Example 77, (±)-(3,4-trans)-4-{[5-Cyclobutyl-2-(9H-pyrido[2,3-b]indol-4-yl)-pyrido[3,4-d]pyrimidin-4-yl]-methyl-amino}-3-methyl-piperidin-3-ol] | > 7.00 |
| FC(F)(F)c1cc2c(-c3nc(N4CC[C@H]5NCCC[C@H]54)c4c(C5CCC5)cncc4n3)ccnc2[nH]1 (racemic) [Example 80, (±)-5-Cyclobutyl-4-(3,7-cis)-octahydro-pyrrolo[3,2-b]pyridin-1-yl-2-(2-trifluoromethyl-1H-pyrrolo[2,3-b]pyridin-4-yl)-pyrido[3,4-d]pyrimidine] | > 7.00 |
| FC(F)(F)c1cc2c(-c3nc(N4CCCC5NCCCC54)c4c(C5CCC5)cncc4n3)ccnc2[nH]1 (racemic) [Example 81, 5-Cyclobutyl-4-(octahydro-[1,5]naphthyridin-1-yl)-2-(2-trifluoromethyl-1H-pyrrolo[2,3-b]pyridin-4-yl)-pyrido[3,4-d]pyrimidine] | > 7.00 |
| Cc1cc2c(-c3nc(N4CC[C@H]5NCC[C@H]54)c4c(C5CC5)cncc4n3)ccnc2[nH]1 (racemic) [Example 82, (±)-5-Cyclopropyl-4-(3,6-cis)-hexahydro-pyrrolo[3,2-b]pyrrol-1-yl-2-(2-methyl-1H-pyrrolo[2,3-b]pyridin-4-yl)-pyrido[3,4-d]pyrimidine] | > 7.00 |
| Cc1cc2c(-c3nc(N4CC[C@H]5NCCC[C@H]54)c4c(C5CC5)cncc4n3)ccnc2[nH]1 (racemic) [Example 83, (±)-5-Cyclopropyl-2-(2-methyl-1H-pyrrolo[2,3-b]pyridin-4-yl)-4-(3,7-cis)-octahydro-pyrrolo [3,2-b]pyridin-1-yl-pyrido[3,4-d]pyrimidine] | > 7.00 |
| Cc1cc2c(-c3nc(N4CC[C@H]5NCC[C@H]54)c4c(C5CCC5)cncc4n3)ccnc2[nH]1 (racemic) [Example 84, (±)-5-Cyclobutyl-4-(3,6-cis)-hexahydro-pyrrolo[3,2-b]pyrrol-1-yl-2-(2-methyl-1H-pyrrolo[2,3-b]pyridin-4-yl)-pyrido[3,4-d]pyrimidine] | > 7.00 |
| Cc1cc2c(-c3nc(N4CC[C@H]5NCCC[C@H]54)c4c(C5CCC5)cncc4n3)ccnc2[nH]1 (racemic) [Example 85, (±)-5-Cyclobutyl-2-(2-methyl-1H-pyrrolo[2,3-b]pyridin-4-yl)-4-(3,7-cis)-octahydro-pyrrolo [3,2-b]pyridin-1-yl-pyrido[3,4-d]pyrimidine] | > 7.00 |
| O[C@]12CCN(c3nc(-c4ccnc5[nH]c(C(F)(F)F)cc45)nc4cncc(C5CC5)c34)[C@H]1CCNC2 (racemic) [Example 104, (±)-(3aS,7aS)-1-[5-Cyclopropyl-2-(2-trifluoromethyl-1H-pyrrolo[2,3-b]pyridin-4-yl)-pyrido[3,4-d]pyrimidin-4-yl]-octahydro-pyrrolo [3,2-c]pyridin-3a-ol] | > 7.00 |

— patent US10414763B2 (CANCER RESEARCH TECHNOLOGY LIMITED, priority 2014, dated 2019)
